Measured values as given in US20110159095A1, “TREATMENT OF ADRENAL INSUFFICIENCY” (priority 2008, published 2011).

System: HPA axis
Assay: Plasma ACTH in dexamethasone-suppressed healthy subjects
Format: in vivo, human
Details: 1 mg oral dexamethasone repeated; confirms suppression of HPA axis
Description: Plasma ACTH levels were taken at 2155 h on Day 1 and on 0600 h on Day 2 whilst serum cortisol levels were taken prior to ingestion of the drug and were repeated every 30 minutes for the first four hours, then at 0200 h, 0300 h, 0400 h, 0500 h, 0600 h, 0800 h, 1000 h, 1300 h, 1600 h, 2200 h.
Assays: Serum cortisol was measured using the Bayer Advia Centaur Automated Immunoassay System. The inter-assay coefficient variation was 7% at 200 nmol/l (7.2 μg/dl), and 8% at 1,050 nmol/l (38 μg/dl). Plasma ACTH was measured using the DPC Immulite 2000 assay. Plasma 17OH-progesterone was measured using Liquid Chromatography Tandem Mass Spectrometry at Quest Diagnostics (Nichols Institute, San Juan Capistrano, Calif., USA) with an inter-assay coefficient of variation of 8.2%.

With `C[C@@H]1C[C@H]2[C@@H]3CCC4=CC(=O)C=C[C@]4(C)[C@@]3(F)[C@@H](O)C[C@]2(C)[C@@]1(O)C(=O)CO` [dexamethasone] the “ACTH values below the assay lower limit” value was 98%.
